Data published in article PMC6539809, “Development of Oxygen-Bridged Pyrazole-Based Structures as Cannabinoid Receptor 1 Ligands” (Molecules, 2019).
“And” between values parts separate entries of the source, which are not always exact repeats. Equal entries are not always repeated. Where two headings read alike, the source gives them in different places.

What was measured:
C57Bl6/J mice = experiment: Acute food intake in fasted mice; assay type: in vivo, mouse
Description: To further evaluate the potential application of these CB1 antagonists in the control of food intake and in obesity treatment, compound 1b was preliminarily tested in comparison with SR141716A in an acute in vivo assay using C57Bl6/J mice. The evaluation was carried out according to the animal model previously reported by Di Marzo [19].
It is well known that CB1Rs mediate the hyperphagic effect of cannabinoids. […] To test the potential anti-obesity effect of the new CB1 antagonist 1b we performed food intake experiments according to the acute animal model described by Di Marzo [19]. For a comparison we also reported the results concerning the assumed lead compound of this new series, derivative 1a.
A widely described method was used for the screening of the new CB1 antagonists in the food intake animal model. C57Bl6/J mice weighing 20–25 g were housed individually on a reverse light-dark cycle in a room with temperature and humidity control. The mice were fasted for 18 h before testing. Vehicle or CB1 antagonists were administered by an intraperitoneal injection and 15 min later a known amount of food was presented. Food pellets were weighed after each hour for three hours. Rimonabant was used as internal positive control in order to evaluate the efficacy of each compound. All animal experiments were performed according to the UE (CEE N° 86/609) guidelines for the care and use of experimental animals.
Two-way ANOVA with Bonferroni post-testing was performed using GraphPad Prism version 5.00 for Windows (GraphPad Software, San Diego CA, USA).

CD1 mice = experiment: Gastrointestinal transit (GIT), carmine marker; assay type: in vivo, mouse; conditions: data not shown
From the text: The mouse isolated vas deferens is a nerve-smooth muscle preparation that serves as a highly sensitive and quantitative functional in vitro bioassay for cannabinoid CB1R agonists. The effect of CB1 agonists is related to the action on naturally expressed prejunctional neuronal CB1Rs to inhibit release of the contractile neurotransmitters, noradrenaline and ATP, which is provoked by electrical stimulation. It has been shown that CB1 antagonist derivatives are able to block or reduce the inhibition of the electrically evoked contraction amplitude of the vas deferens induced by CB1 agonists, with parallel dextral shifts in CB1R agonist log concentration-response curves in electrically stimulated tissues. According to previous studies concerning cannabinoid agents, a gastrointestinal transit test was adopted to confirm CB1 antagonism. […] Moreover, the capability of CB1 antagonist compounds both to block the constipation effect induced by cannabinoid agonists and to themselves increase themselves gastrointestinal motility has been reported.
The same procedure previously reported by Murineddu et al. was adopted to evaluate the effect of the compounds on GIT. CD1 mice weighing 30–35 g were used. Carmine (Sigma Chemical Co, St. Louis, MO, USA) was suspended (6% wt/v) in distilled water containing 0.5% methylcellulose and administered by gavage at the dose of 0.3 mL/mouse. Briefly, after 20 min from carmine administration, mice were sacrificed by cervical dislocation and the stomach and small intestine were removed and the omentum was separated, avoiding stretching. The length of the intestine was measured starting from the pyloric sphincter to the ileocecal junction. The distance travelled by the head of the marker was measured and expressed as a percent of the total length of the small intestine. Using this procedure, the marker was consistently found at approximately 50% of the small intestine, 20 min after its administration to naive mice.
20 min later, mice were killed by dislocation cervical and intestines were removed. […] The length of the intestine from the pyloric sphincter to the ileocecal junction and the distance travelled by the carmine front were both measured and recorded. Groups of n = 10 mice were used in each experiment.
Statistical analyses were performed by one-way ANOVA followed by Newman-Keuls post-hoc comparison.

CB1 receptor = molecular target: T1, CB1 receptor (Mus musculus, UniProt P47746); experiment: CB1 radioligand binding, [3H]-CP-55,940 competition in mouse brain (minus cerebellum) homogenate; conditions: for Ki: mean ± standard error, five independent experiments in triplicate; for CB1-affinity decrease relative to 1a: compared with 1a (Ki 10.25 nM); for Selectivity KiCB2/KiCB1: ratio of KiCB2 to KiCB1
T1 construct: from tissue; host or cells: mouse (CD1) brain minus cerebellum, membrane homogenate
Description: Radioligand binding experimental procedures previously reported by us were adopted.
(§1) Male CD1 mice weighing 30–35 g were killed by cervical dislocation and the brain (minus cerebellum) and spleen were rapidly removed and frozen. After thawing, tissues were homogenated in 20 vol. (wt/v) of ice-cold TME buffer (50 mM Tris-HCl, 1 mM EDTA and 3.0 mM MgCl2, pH 7.4). The homogenates were centrifuged at 1,086 ×g for 10 min at 4 °C, and the resulting supernatants were centrifuged at 45,000 ×g for 30 min.
(§2) All binding studies were performed in disposable glass tubes pre-treated with Sigma-Cote (Sigma Chemical Co., Ltd., Poole, UK), in order to reduce non-specific binding. The reaction was terminated by rapid filtration through Whatman GF/C filters presoaked in 0.5% polyethyleneimine (PEI) using a Brandell 36-sample harvester (Gaithersburg, MD, USA). Filters were washed five times with 4 mL aliquots of ice-cold Tris HCl buffer (pH 7.4) containing 1 mg/mL BSA. The filter bound radioactivity was measured in a liquid scintillation counter (Tricarb 2900, Packard, Meridien, […], USA) with 4 mL of scintillation fluid (Ultima Gold MV, Packard).
(§3) Protein determination was performed by means of a Bradford protein assay using BSA as a standard according to the protocol of the supplier (Bio-Rad, Milan, Italy).
(§4) All experiments were performed in triplicate and results were confirmed in at least five independent experiments. Data from radioligand inhibition experiments were analysed by nonlinear regression analysis of a Sigmoid Curve using Graph Pad Prism program. IC50 values were derived from the calculated curves and converted to Ki values as previously described.

CB2 receptor = molecular target: T2, CB2 receptor (Mus musculus, UniProt P47936); experiment: CB2 radioligand binding, [3H]-CP-55,940 competition in mouse spleen homogenate; conditions: [3H]-CP-55,940, mouse spleen homogenate; mean ± standard error, five independent experiments in triplicate; read-out: KiCB2
T2 construct: from tissue; host or cells: mouse (CD1) spleen, membrane homogenate
Description: Affinities at CB1R and CB2R for compounds 1c–j were assessed by competition of [^3H]-CP-55,940 in mouse brain (minus cerebellum) and spleen homogenates, respectively. Radioligand binding experimental procedures previously reported by us were adopted.
as §1
as §2, with “[^3H]-CP-55,940 binding was performed using the method previously described by Ruiu et al.. Briefly, the membranes (30–80 µg of protein) were incubated with 0.5–1 nM of [^3H]-CP-55,940 for 1 h at 30 °C in a final volume of 0.5 mL of TME buffer containing 5 mg/mL of fatty acid-free bovine serum albumin. Non-specific binding was estimated in the presence of 1 µM of CP-55,940. All” for “All”
as §3, §4

[1] = tested on: P-ERK 1/2 expression in mouse neuroblastoma N1E-115 cells (CB1Rs); experiment: P-ERK 1/2 expression in N1E-115 cells (Western blot); assay type: cell-based; conditions: 10 min exposure
Description: Agonist or antagonist activity of the new derivatives towards CB1Rs were assayed through in vitro testing based on the determination of phosphorylated ERK 1/2 (P-ERK 1/2) expression in a mouse neuroblastoma N1E-115 cell line. As previously reported, this cell line expresses CB1Rs but not CB2Rs; moreover, it has been shown that the exposure of N1E-115 cells to the cannabinoid agonists arachidonyl-2-chloroethylamide (ACEA) and WIN 55-212,2 induces a rapid phosphorylation and activation of the ERK 1/2. The addition of CB1 antagonists as SR141716A abolishes the response induced by the cannabinoid agonists.
N1E-115 cells were grown at 37 °C in humidified 5% CO2 in Dulbecco’s Modified Eagle’s Medium (high glucose supplemented with 10% fetal bovine serum (FBS), 1 μg/mL penicillin-streptomycin, 2 mM L-glutamine, 2.5 μg/mL amphotericin B and 50 μg/mL gentamicin). […] Tested and reference compounds were dissolved in Dulbecco’s phosphate buffered saline (D-PBS) with 1% DMSO and treatments were performed in a volume of 10 μL/mL of cell suspension.
P-ERK 1/2 expression was determined through Western blot analysis according to the previously reported procedure. One-way ANOVA was performed as a statistical analysis using the Graph Pad Prism program (San Diego, CA, USA).
The same procedure was adopted to determine CB1 specific antagonism for compounds which had no effect on P-ERK 1/2 expression themselves. In these last cases, WIN55,212-2 at 25 nM as a reference cannabinoid agonist agent and the new CB1 antagonists at 150–200 nM were employed.

[2] = molecular target: T3, CB1Rs of mouse vas deferens (Mus musculus, UniProt P47746); experiment: Isolated organ assay: electrically evoked contractions of mouse vas deferens; conditions: cumulative concentration-response curve
T3 construct: naturally expressed prejunctional neuronal CB1Rs; from tissue; host or cells: isolated vas deferens of male albino CD1 mice
Description: Vas deferens was obtained from male albino CD1 mice weighing 30 to 40 g. Tissue was mounted in a 10 mL organ bath at an initial tension of 0.5 g using a previously described method [16]. The bath contained Krebs-Henseleit solution (118.2 mM NaCl, 4.75 mM KCl, 1.19 mM KH2PO4, 25.0 mM NaHCO3, 11.0 mM glucose, and 2.54 mM CaCl2), which was kept at 37 °C and bubbled with 95% O2 and 5% CO2. Isometric contractions were evoked by stimulation with 0.5 sec trains of three pulses of 110% maximal voltage (train frequency, 0.1 Hz; pulse duration, 0.5 msec) through platinum electrodes attached to the upper end of each bath and a stainless-steel electrode attached to the lower end. Stimuli were generated using a Grass S88K stimulator and then amplified (multiplexing pulse booster 316S; Ugo Basile, Comerio, Italy) and divided to yield separate outputs to four organ baths. Contractions were monitored using a computer equipped with a data recording and analysis system (PowerLab 400) linked via preamplifiers (QuadBridge) to an F10 transducer (Biological Instruments, Besozzo, Italy). Each tissue was subject to several periods of stimulation. […] The stimulator was then switched off for 15 min, after which the tissues were subjected to further periods of stimulation each lasting 5 min and separated by a stimulation-free period. The compounds to be assayed were added once the contractile responses to electrical stimulation were reproducible. Preparations were exposed to cumulative increasing concentrations of the compounds to obtain concentration-response curves in the case of CB1 agonist (and partial agonist) compounds. […] Inhibition of the electrically evoked twitch response was expressed in percentage terms and was calculated by comparing the amplitude of the twitch response after each addition of the agonist compound (alone or in the presence of a potential CB1 antagonist) with the amplitude detected in absence of the compounds to be assayed (basal value). The pA2 values for competitive antagonism were calculated by Schild regression analysis [37]. Data were plotted as log antagonist concentration versus log [(antagonist concentration/agonist concentration)-1].

[3] = [3H]-CP 55,940, mouse brain (minus cerebellum) homogenate, read-out: KiCB1

T2 sequence (P47936 whole entry): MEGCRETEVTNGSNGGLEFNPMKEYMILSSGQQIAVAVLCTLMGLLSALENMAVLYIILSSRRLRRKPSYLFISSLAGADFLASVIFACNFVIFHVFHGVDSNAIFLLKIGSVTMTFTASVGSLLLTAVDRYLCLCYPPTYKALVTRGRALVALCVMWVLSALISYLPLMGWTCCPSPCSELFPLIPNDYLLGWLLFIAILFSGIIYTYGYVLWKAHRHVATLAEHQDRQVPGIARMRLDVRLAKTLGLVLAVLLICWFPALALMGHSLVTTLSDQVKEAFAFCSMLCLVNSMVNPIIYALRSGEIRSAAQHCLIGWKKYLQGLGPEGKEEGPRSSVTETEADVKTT
T1 sequence (P47746 whole entry): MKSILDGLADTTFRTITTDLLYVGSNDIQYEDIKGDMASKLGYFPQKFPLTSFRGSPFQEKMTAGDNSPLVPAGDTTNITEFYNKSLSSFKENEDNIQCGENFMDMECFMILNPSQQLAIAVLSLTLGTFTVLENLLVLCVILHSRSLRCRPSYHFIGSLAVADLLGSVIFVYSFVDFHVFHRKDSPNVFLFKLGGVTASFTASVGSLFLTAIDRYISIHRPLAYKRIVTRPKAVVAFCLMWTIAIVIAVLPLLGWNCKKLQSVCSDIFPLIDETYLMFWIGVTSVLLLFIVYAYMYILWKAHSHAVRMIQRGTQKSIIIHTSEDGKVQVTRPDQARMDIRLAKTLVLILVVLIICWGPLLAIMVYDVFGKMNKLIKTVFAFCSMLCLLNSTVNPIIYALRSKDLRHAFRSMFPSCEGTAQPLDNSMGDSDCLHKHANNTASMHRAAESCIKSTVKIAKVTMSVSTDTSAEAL
T3 sequence (P47746 whole entry): as above

| Structure (SMILES) | melting point | Ki (CB1 receptor; [3]) | CB1-affinity decrease relative to 1a (CB1 receptor) | Ki (CB2 receptor) | other results |
| --- | --- | --- | --- | --- | --- |
| Cc1c(C(=O)NN2CCCCC2)nn(-c2ccc(Cl)cc2Cl)c1-c1ccc(Cl)cc1 [rimonabant, N-piperidinyl-5-(4-chlorophenyl)-1-(2,4-dichlorophenyl)-4-methyl-1H-pyrazole-3-carboxamide, reference compound] | – | – | – | – | Food intake effect over time (C57Bl6/J mice; 10 mg/kg i.p., at 2 h and 3 h): fades away; Observable side effects / behavioural effects (C57Bl6/J mice; 20 mg/kg (highest assayed dosage)): marked behavioural effects |
| O=C(NN1CCCCCC1)c1nn(-c2ccc(Cl)cc2Cl)c2c1CCOc1cc(Cl)ccc1-2 [Compound 1d, 8-Chloro-1-(2,4-dichlorophenyl)-N-homopiperidin-1-yl-4,5-dihydrobenzo-1H-6-oxa-cyclohepta[1,2-c]pyrazole-3-carbohydrazide] | 137 to 138 °C | < 60 nM and 35 nM | 3.5 fold | 2000 ± 50 nM | Effect on gastrointestinal transit compared with that of 1b (CD1 mice): Analogue results; Selectivity KiCB2/KiCB1 (CB1 receptor): > 57 |
| COc1ccc(NC(=O)c2nn(-c3ccc(Cl)cc3Cl)c3c2CCOc2cc(Cl)ccc2-3)cc1 [Compound 1i, 8-Chloro-1-(2,4-dichlorophenyl)-N-(p-methoxyphenyl)-4,5-dihydrobenzo-1H-6-oxa-cyclohepta[1,2-c]pyrazole-3-carboxamide] | 214 °C | 330 ± 45 nM | – | > 5000 nM | – |
| O=C(Nc1ccc(Cl)cc1)c1nn(-c2ccc(Cl)cc2Cl)c2c1CCOc1cc(Cl)ccc1-2 [Compound 1g, 8-Chloro-1-(2,4-dichlorophenyl)-N-(p-chlorophenyl)-4,5-dihydrobenzo-1H-6-oxa-cyclohepta[1,2-c]pyrazole-3-carboxamide] | 239 °C | 318 ± 36 nM | – | > 5000 nM | – |
| O=C(Nc1ccc(C(F)(F)F)cc1)c1nn(-c2ccc(Cl)cc2Cl)c2c1CCOc1cc(Cl)ccc1-2 [Compound 1j] | 249 to 250 °C | 459 ± 57 nM | – | > 5000 nM | – |
| O=C(Nc1ccccc1)c1nn(-c2ccc(Cl)cc2Cl)c2c1CCOc1cc(Cl)ccc1-2 [Compound 1f, 8-Chloro-1-(2,4-dichlorophenyl)-N-phenyl-4,5-dihydrobenzo-1H-6-oxa-cyclohepta[1,2-c]pyrazole-3-carboxamide] | 130 °C | 233 ± 33 nM | 23 fold | 4120 ± 620 nM | – |
| Cc1ccc(NC(=O)c2nn(-c3ccc(Cl)cc3Cl)c3c2CCOc2cc(Cl)ccc2-3)cc1 [Compound 1h, 8-Chloro-1-(2,4-dichlorophenyl)-N-tolyl-4,5-dihydrobenzo-1H-6-oxa-cyclohepta[1,2-c] pyrazole-3-carboxamide] | 181 °C | – | – | > 5000 nM | Ki (CB1 receptor; KiCB1, [3H]-CP 55,940, mouse brain (minus cerebellum) homogenate): 429 ± 49 nM |
| CC1(C)C2CCC(CNC(=O)c3nn(-c4ccc(Cl)cc4Cl)c4c3CCOc3cc(Cl)ccc3-4)C1C2 (stereo not shown) [Compound 1e, 8-Chloro-1-(2,4-dichlorophenyl)-N-(6,6-dimethyl-bicyclo[3.1.1]hept-2-yl-methyl)-4,5-dihydrobenzo-1H-6-oxa-cyclohepta[1,2-c]pyrazole-3-carboxamide] | 142 to 143 °C | – | – | – | Concentration up to which a dose response effect on P-ERK 1/2 expression was highlighted ([1]; N1E-115 cells): ≤ 75 nM; Effect on P-ERK 1/2 expression (agonist activity towards CB1) ([1]; compound alone, 1b–d at concentrations up to 1 μM): CB1 agonist activity; Maximum inhibition of the amplitude of electrically-evoked contractions [2]: around 60% |
| O=C(NN1CCCC1)c1nn(-c2ccc(Cl)cc2Cl)c2c1CCOc1cc(Cl)ccc1-2 [Compound 1c, 8-Chloro-1-(2,4-dichlorophenyl)-N-pyrrolidin-1-yl-4,5-dihydrobenzo-1H-6-oxa-cyclohepta[1,2-c]pyrazole-3-carbohydrazide] | 175 °C | < 60 nM and 55.1 nM | 5.4 fold | 4500 ± 500 nM | Effect on gastrointestinal transit compared with that of 1b (CD1 mice): Analogue results; Selectivity KiCB2/KiCB1 (CB1 receptor): > 57 |
